# Experimental data reported in patent publication US20240124491A1, “METHODS AND COMPOUNDS FOR TREATING FRIEDREICH'S ATAXIA” (Design Therapeutics, Inc., priority 2021, published 2024).
# Test system: human FXN
# Assay: EC50 assay: FXN mRNA expression by qRT-PCR in GM15850 cells after 48 hrs compound treatment
# Format: cell-based
# Conditions: Homo sapiens, 48 hrs incubation, hFXN expression normalized to hGAPDH (qRT-PCR), read-out: EC50 WT (nM, 48 hr)
# Method in brief: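 FXN transcript, normalized to GAPDH by TaqMan qRT-PCR, read out after 48 hrs of compound on GM15850 cells plated at 150,000 per well. Dosing used five 3-fold steps from 150 nM final, vehicle 0.01% DMSO.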
row,Compound,EC50 [nM]
1,CC(=O)N1c2ccc(-c3ccc(C(=O)N4CCC(C#CC#CC5CCN(CCOCCOCCOCCOCCOCCOCCNC(=O)CCNC(=O)c6nc(NC(=O)CCNC(=O)c7cc(NC(=O)c8nc(NC(=O)CCNC(=O)c9cc(NC(=O)c%10nccn%10C)cn9C)cn8C)cn7C)cn6C)CC5)CC4)cc3)cc2C(Nc2ccc(Cl)cc2)C[C@@H]1C (stereo partly drawn) [Compound 150],< 100
2,Cc1sc2c(c1C)C(c1ccc(Cl)cc1)=N[C@@H](CC(=O)NC1CCN(C(C)(C)C#CC#CC3CCN(CCOCCOCCOCCOCCOCCNC(=O)CCNC(=O)c4nc(NC(=O)CCNC(=O)c5cc(NC(=O)c6nc(NC(=O)CCNC(=O)c7cc(NC(=O)c8nccn8C)cn7C)cn6C)cn5C)cn4C)CC3)CC1)c1nnc(C)n1-2 [Compound 151],< 100
3,Cc1sc2c(c1C)C(c1ccc(Cl)cc1)=N[C@@H](CC(=O)NC1CCN(CC#CC#CC3CCN(CCOCCOCCNC(=O)CCNC(=O)c4nc(NC(=O)CCNC(=O)c5cc(NC(=O)c6nc(NC(=O)CCNC(=O)c7cc(NC(=O)c8nccn8C)cn7C)cn6C)cn5C)cn4C)CC3)CC1)c1nnc(C)n1-2 [Compound 155],< 100
4,Cc1sc2c(c1C)C(c1ccc(Cl)cc1)=N[C@@H](CC(=O)NC1CCN(CC#CC#CC3CCN(CCOCCOCCOCCNC(=O)CCNC(=O)c4nc(NC(=O)CCNC(=O)c5cc(NC(=O)c6nc(NC(=O)CCNC(=O)c7cc(NC(=O)c8nccn8C)cn7C)cn6C)cn5C)cn4C)CC3)CC1)c1nnc(C)n1-2 [Compound 156],< 100
5,Cc1sc2c(c1C)C(c1ccc(Cl)cc1)=N[C@@H](CC(=O)NC1CCN(CC#CC#CC3CCN(CCOCCOCCOCCOCCOCCOCCOCCNC(=O)CCNC(=O)c4nc(NC(=O)CCNC(=O)c5cc(NC(=O)c6nc(NC(=O)CCNC(=O)c7cc(NC(=O)c8nccn8C)cn7C)cn6C)cn5C)cn4C)CC3)CC1)c1nnc(C)n1-2 [Compound 157],< 100
6,Cc1cc(F)cc(C)c1Oc1ccc(C(C)(C)O)cc1-c1cn(C)c(=O)c2[nH]c(C(=O)NC3CCN(CC#CC#CC4CCN(CCOCCOCCOCCOCCOCCNC(=O)CCNC(=O)c5nc(NC(=O)CCNC(=O)c6cc(NC(=O)c7nc(NC(=O)CCNC(=O)c8cc(NC(=O)c9nccn9C)cn8C)cn7C)cn6C)cn5C)CC4)CC3)cc12 [Compound 158],< 100
7,Cc1sc2c(c1C)C(c1ccc(Cl)cc1)=N[C@@H](CC(=O)NC1CCN(C(C)(C)C#CC#CCNCCOCCOCCOCCOCCOCCNC(=O)CCNC(=O)c3nc(NC(=O)CCNC(=O)c4cc(NC(=O)c5nc(NC(=O)CCNC(=O)c6cc(NC(=O)c7nccn7C)cn6C)cn5C)cn4C)cn3C)CC1)c1nnc(C)n1-2 [Compound 159],< 100
8,Cc1sc2c(c1C)C(c1ccc(Cl)cc1)=N[C@@H](CC(=O)N1CCC(C#CC#CC3CCN(CCOCCNC(=O)CCNC(=O)c4nc(NC(=O)CCNC(=O)c5cc(NC(=O)c6nc(NC(=O)CCNC(=O)c7cc(NC(=O)c8nccn8C)cn7C)cn6C)cn5C)cn4C)CC3)CC1)c1nnc(C)n1-2 [Compound 160],< 100
9,Cc1sc2c(c1C)C(c1ccc(Cl)cc1)=N[C@@H](CC(=O)N1CCC(C#CC#CC3CCN(CCNC(=O)CCNC(=O)c4nc(NC(=O)CCNC(=O)c5cc(NC(=O)c6nc(NC(=O)CCNC(=O)c7cc(NC(=O)c8nccn8C)cn7C)cn6C)cn5C)cn4C)CC3)CC1)c1nnc(C)n1-2 [Compound 161],< 100
10,Cc1sc2c(c1C)C(c1ccc(Cl)cc1)=N[C@@H](CC(=O)N1CCC(C#CC#CCNCCOCCNC(=O)CCNC(=O)c3nc(NC(=O)CCNC(=O)c4cc(NC(=O)c5nc(NC(=O)CCNC(=O)c6cc(NC(=O)c7nccn7C)cn6C)cn5C)cn4C)cn3C)CC1)c1nnc(C)n1-2 [Compound 163],< 100
11,Cc1sc2c(c1C)C(c1ccc(Cl)cc1)=N[C@@H](CC(=O)N1CCC(C#CC#CCNC(=O)CCNC(=O)c3nc(NC(=O)CCNC(=O)c4cc(NC(=O)c5nc(NC(=O)CCNC(=O)c6cc(NC(=O)c7nccn7C)cn6C)cn5C)cn4C)cn3C)CC1)c1nnc(C)n1-2 [Compound 164],> 500
12,Cc1cc(F)cc(C)c1Oc1ccc(C(C)(C)O)cc1-c1cn(C)c(=O)c2[nH]c(C(=O)N3CCN(CC4CCN(CCOCCOCCOCCOCCOCCOCCNC(=O)CCNC(=O)c5nc(NC(=O)CCNC(=O)c6cc(NC(=O)c7nc(NC(=O)CCNC(=O)c8cc(NC(=O)c9nccn9C)cn8C)cn7C)cn6C)cn5C)CC4)CC3)cc12 [Compound 167],> 500
